Experimental data reported in publication PMC8402032, “Unsymmetric Cisplatin-Based Pt(IV) Conjugates Containing a PARP-1 Inhibitor Pharmacophore Tested on Malignant Pleural Mesothelioma Cell Lines” (Molecules, 2021).

Columns and labels:
PARP-1 = assay: Western blot analysis of PARP-1 expression in MSTO-211H cells; type: cell-based, human; settings: 72 h, equitoxic (IC50) concentrations, whole cell lysate
Method: It is necessary to verify how much the presence of the bulky Fmoc group might affect the recognition of the PARP catalytic domain. It is important to recall that all PARPis designed as analogues of nicotinamide must contain a primary or secondary amide. Indeed, this is the case of 6 [27]. The effects of compounds 6–9 on the expression of PARP-1 were evaluated by treating MSTO-211H cells for 72 h with equitoxic (at their IC50) concentrations of complexes, followed by Western blot analysis of whole cell lysate. […] First of all, the higher cellular uptake of 6 and 7 increases the intracellular concentration of the Pt metabolite and, in particular, of the ligands, potentially PARPis (synergistic cellular accumulation). […]
For protein analysis, cells were extracted with 1% NP-40 lysis buffer (50 mM Tris-HCl pH 8.5 containing 1% NP-40, 150 mM NaCl, 10 mM EDTA, 10 mM NaF, 10 mM Na4P2O7, and 0.4 mM Na3VO4) with freshly added protease inhibitors (10 μg mL^−1 leupeptin, 4 μg mL^−1 pepstatin, and 0.1 U mL^−1 aprotinin). […] Following SDS-PAGE, proteins were transferred to nitrocellulose, reacted with specific antibodies, and then detected with peroxidase-conjugate secondary antibodies and chemioluminescent ECL reagent. Digital images were taken with the Bio-Rad ChemiDocTM Touch Imaging System and quantified using Bio-Rad Image Lab 5.2.1. […]

[1] = test system: MSTO-211H multicellular spheroids (MCS); assay: Apoptosis in MSTO-211H multicellular spheroids; type: cell-based, human; settings: MSTO-211H MCS, 10 μM, 72 h; spheroid morphology, PARP-1 cleavage, BIM and PUMA induction
Method: The capability of compound 6 to induce apoptosis was confirmed also when MSTO-211H cells were cultured as multicellular spheroids (MCSs). MCSs and other similar 3D cultures represent an improvement of classical 2D conditions, having a more complex architectural structure and better bio-mimicking of the in vivo microenvironment. Although they suffer many of the limitations of the 2D cultures, they are a powerful tool to narrow down the gap between the in vitro and in vivo models.
Multicellular spheroids were generated in non-adsorbent round-bottomed 96-well plates, as previously described. The 96-well plates were coated with a 1:24 dilution of polyHEMA (120 mg mL^−1) in 95% ethanol and dried at 37 °C for 24 h. Before use, plates were sterilized by UV light for 30 min. For generation of multicellular spheroids, 1 × 10^4 cells were added into each well of a polyHEMA-coated 96-well plate and placed in a 37 °C humidified incubator with 5% CO2. Every 24 h, 50% of supernatant was replaced with fresh medium.
Figure 5 Compound 6 induces apoptosis in MSTO-211H multicellular spheroids (MCS). (A) Representative microscope images of MCS treated for 72 h with diluent (Ctrl) or 10 μM 6. Scale bar = 100 μm. (B) Representative Western blot showing PARP-1 cleavage in MSTO-211H MCS treated with 6. Tubulin was used as loading control. […]

[2] = Reduction with ascorbic acid followed by RP-HPLC; type: physicochemical; settings: ascorbic acid 10 mM, HEPES 50 mM pH 7.4, 37 °C, cosolvent DMF or MeOH, 24 h
Method: To verify the activation by reduction mechanism, complexes 6–9 were challenged with the model bioreductant ascorbic acid (AA, 10 mM in water) in HEPES buffer (HEPES = 4-(2-hydroxyethyl)-1-piperazineethanesulfonic acid, 50 mM, pH = 7.4) at 37 °C. The reaction was monitored by following the RP-HPLC peaks over 24 h. The different solubility and retention times required different experimental conditions for the different compounds (cosolvent DMF or MeOH was necessary to maintain the Pt compounds in solution, >5% v/v). For these reasons, complete reduction for 8 and 9 was observed after 8 h, whereas for 6 and 7, the >85% peak area disappeared after 24 h only. […] Complexes 6–9, having very similar coordination skeletons, can be expected to behave in the same way.
The reduction of complexes with ascorbic acid was followed by monitoring of the reduction of the area of their chromatographic peaks via RP-HPLC over 24 h at 37 °C. The Pt compounds were dissolved in methanol or DMF (up to 20 mM) and diluted with different quantities of 50 mM 4-(2-hydroxyethyl)piperazine-1-ethanesulfonic acid (HEPES) buffer (pH = […]) containing 10 mM ascorbic acid. The mixtures were microfiltered to eliminate the precipitated complex. The chromatographic conditions were similar to those for the determination of lipophilicity (see Section 3.4), with different percentages of methanol depending on the complex.

peak area disappeared after 24 h [2]: > 85%
Structure (SMILES): CC(=O)[O][Pt]([NH2])([NH2])([Cl])([Cl])[O]C(=O)CCNC(=O)c1cccc(NC(=O)OCC2c3ccccc3-c3ccccc32)c1 [Compound 6, (OC-6-44)-Acetato[3-(3-(fmoc-amino)-benzamido)-propanoato]-diammine-dichlorido-platinum(IV)]
PARP-1 expression (PARP-1): lower expression of PARP-1 in the series
apoptosis in multicellular spheroids [1]: apoptotic death was evidenced
